What was measured:
[1] = test system: Bifidobacterium adolescentis 15703; assay: Oligosaccharide utilization (growth) by colonic bacteria; format: cell-based; conditions: 0.5% oligosaccharide preparation, anaerobic, 5 days, 37° C
[2] = test system: Bifidobacterium breve 15698; assay: as above; format: cell-based; conditions: 0.5% oligosaccharide preparation, anaerobic, 5 days, 37° C
[3] = test system: Bifidobacterium infantis 15697; assay: as above; format: cell-based; conditions: 0.5% oligosaccharide preparation, anaerobic, 5 days, 37° C
[4] = test system: Bifidobacterium longum 15707; assay: as above; format: cell-based; conditions: 0.5% oligosaccharide preparation, anaerobic, 5 days, 37° C
[5] = test system: Bifidobacterium pseudocatenulatum 27919; assay: as above; format: cell-based; conditions: 0.5% oligosaccharide preparation, anaerobic, 5 days, 37° C
[6] = test system: Bifidobacterium thermophilum 25866; assay: as above; format: cell-based; conditions: 0.5% oligosaccharide preparation, anaerobic, 5 days, 37° C
[7] = test system: Bifidobacterium catenulatum 27539; assay: as above; format: cell-based; conditions: 0.5% oligosaccharide preparation, anaerobic, 5 days, 37° C
[8] = test system: Bifidobacterium gallicum 49850; assay: as above; format: cell-based; conditions: 0.5% oligosaccharide preparation, anaerobic, 5 days, 37° C
[9] = test system: Bifidobacterium bifidum 29521; assay: as above; format: cell-based; conditions: 0.5% oligosaccharide preparation, anaerobic, 5 days, 37° C
[10] = test system: Bifidobacterium ruminantium 4939; assay: as above; format: cell-based; conditions: 0.5% oligosaccharide preparation, anaerobic, 5 days, 37° C
[11] = test system: Bifidobacterium boum 27917; assay: as above; format: cell-based; conditions: 0.5% oligosaccharide preparation, anaerobic, 5 days, 37° C
[12] = test system: Bifidobacterium adolescentis 15704; assay: as above; format: cell-based; conditions: 0.5% oligosaccharide preparation, anaerobic, 5 days, 37° C
[13] = test system: Bifidobacterium adolescentis 15705; assay: as above; format: cell-based; conditions: 0.5% oligosaccharide preparation, anaerobic, 5 days, 37° C
[14] = test system: Bifidobacterium adolescentis 15706; assay: as above; format: cell-based; conditions: 0.5% oligosaccharide preparation, anaerobic, 5 days, 37° C
[15] = test system: Lactobacillus casei 393; assay: as above; format: cell-based; conditions: 0.5% oligosaccharide preparation, anaerobic, 5 days, 37° C
[16] = test system: Lactobacillus acidophilus 4356; assay: as above; format: cell-based; conditions: 0.5% oligosaccharide preparation, anaerobic, 5 days, 37° C
[17] = test system: Lactobacillus GG 53103; assay: as above; format: cell-based, Lactobacillus rhamnosus GG; conditions: 0.5% oligosaccharide preparation, anaerobic, 5 days, 37° C
[18] = test system: Bacteroides thetaiotaomicron 29148; format: cell-based; conditions: 0.5% oligosaccharide preparation, anaerobic, 5 days, 37° C
[19] = test system: Escherchia coli 8739; assay: Oligosaccharide utilization (growth) by colonic bacteria; format: cell-based, Escherichia coli; conditions: 0.5% oligosaccharide preparation, anaerobic, 5 days, 37° C
[20] = test system: Enterobacter aerogenes 35028; assay: as above; format: cell-based; conditions: 0.5% oligosaccharide preparation, anaerobic, 5 days, 37° C
[21] = test system: Salmonella typhimurium 14028; assay: as above; format: cell-based, Salmonella choleraesuis (typhimurium); conditions: 0.5% oligosaccharide preparation, anaerobic, 5 days, 37° C
[22] = test system: Clostridium perfringens 13124; format: cell-based; conditions: 0.5% oligosaccharide preparation, anaerobic, 5 days, 37° C
[23] = test system: alternansucrase; assay: Comparison of acceptor strengths with alternansucrase, relative amount of alternan formed; conditions: for Alternan (Rel. %): 45 μL 10% (w/v) sucrose, 45 μL 10% (w/v) acceptor, 10 μL alternansucrase, pH 5.4, room temperature, less alternan = stronger acceptor; for acceptor strength for alternansucrase, in words: text summary of Table I

With `O=C[C@H](O)[C@@H](O)[C@H](O)[C@H](O)CO` [D-glucose] the “Growth (OD600 nm), Bifidobacterium adolescentis 15703” value [1] was “+++ (OD600 nm ≧ 0.60, high growth)”, the “Growth (OD600 nm), Bifidobacterium breve 15698” value [2] was “+++ (OD600 nm ≧ 0.60, high growth)” and the “Growth (OD600 nm), Bifidobacterium infantis 15697” value [3] was “+++ (OD600 nm ≧ 0.60, high growth)”. For the same compound, the “Growth (OD600 nm), Bifidobacterium longum 15707” value [4] was “+++ (OD600 nm ≧ 0.60, high growth)”, the “Growth (OD600 nm), Bifidobacterium pseudocatenulatum 27919” value [5] was “+++ (OD600 nm ≧ 0.60, high growth)” and the “Growth (OD600 nm), Bifidobacterium thermophilum 25866” value [6] was “+++ (OD600 nm ≧ 0.60, high growth)”. The “Growth (OD600 nm), Bifidobacterium catenulatum 27539” value [7] was “+++ (OD600 nm ≧ 0.60, high growth)”, the “Growth (OD600 nm), Bifidobacterium gallicum 49850” value [8] was “+++ (OD600 nm ≧ 0.60, high growth)” and the “Growth (OD600 nm), Bifidobacterium bifidum 29521” value [9] was “+++ (OD600 nm ≧ 0.60, high growth)”. The “Growth (OD600 nm), Bifidobacterium ruminantium 4939” value [10] was “+++ (OD600 nm ≧ 0.60, high growth)”, the “Growth (OD600 nm), Bifidobacterium boum 27917” value [11] was “+++ (OD600 nm ≧ 0.60, high growth)” and the “Growth (OD600 nm), Bifidobacterium adolescentis 15704” value [12] was “+++ (OD600 nm ≧ 0.60, high growth)”. The “Growth (OD600 nm), Bifidobacterium adolescentis 15705” value [13] was “+++ (OD600 nm ≧ 0.60, high growth)”, the “Growth (OD600 nm), Bifidobacterium adolescentis 15706” value [14] was “+++ (OD600 nm ≧ 0.60, high growth)” and the “Growth (OD600 nm), Lactobacillus casei 393” value [15] was “+++ (OD600 nm ≧ 0.60, high growth)”. For the same compound, the “Growth (OD600 nm), Lactobacillus acidophilus 4356” value [16] was “+++ (OD600 nm ≧ 0.60, high growth)”, the “Growth (OD600 nm), Lactobacillus GG 53103” value [17] was “+++ (OD600 nm ≧ 0.60, high growth)” and the “Growth (OD600 nm), Bacteroides thetaiotaomicron 29148” value [18] was “++ (OD600 nm 0.31–0.59, medium growth)”. For the same compound, the “Growth (OD600 nm), Escherchia coli 8739” value [19] was “+++ (OD600 nm ≧ 0.60, high growth)”, the “Growth (OD600 nm), Enterobacter aerogenes 35028” value [20] was “+++ (OD600 nm ≧ 0.60, high growth)” and the “Growth (OD600 nm), Salmonella typhimurium 14028” value [21] was “++ (OD600 nm 0.31–0.59, medium growth)”. For the same compound, the “Growth (OD600 nm), Clostridium perfringens 13124” value [22] was “+++ (OD600 nm ≧ 0.60, high growth)” and the “Alternan (Rel. %)” value [23] was 53 Rel. %.
With `OC[C@H]1O[C@@](CO)(O[C@H]2O[C@H](CO[C@H]3O[C@H](CO)[C@@H](O)[C@H](O)[C@H]3O)[C@@H](O)[C@H](O)[C@H]2O)[C@@H](O)[C@@H]1O` [theanderose] the “Alternan (Rel. %)” value [23] was 42 Rel. %.
In the case of `O=C(CO)[C@@H](O[C@H]1O[C@H](CO)[C@@H](O)[C@H](O)[C@H]1O)[C@H](O)[C@H](O)CO` [turanose], the “Alternan (Rel. %)” value [23] is reported as 57 Rel. %.
With `OC[C@@H](O)[C@H](O)[C@@H](O)CO` [xylitol] the “Alternan (Rel. %)” value [23] was 97 Rel. %.
`OC[C@H]1O[C@H](O[C@H]2O[C@H](CO)[C@@H](O)[C@H](O)[C@H]2O)[C@H](O)[C@@H](O)[C@@H]1O` [α,α-trehalose] was tested, and the “Alternan (Rel. %)” value [23] was 102 Rel. % and the “acceptor strength for alternansucrase, in words” value [23] was “not an acceptor”.
For `CO[C@H]1O[C@H](CO)[C@H](O)[C@H](O)[C@H]1O` [α-methyl-D-galactoside, α-methyl-D-galactopyranoside], the “Alternan (Rel. %)” value [23] was 73 Rel. %.
For `CO[C@H]1O[C@H](CO)[C@@H](O)[C@H](O)[C@H]1O` [α-methyl-D-glucoside, α-methyl-D-glucopyranoside], the “Alternan (Rel. %)” value [23] was 20 Rel. %.
For `CO[C@H]1O[C@H](CO)[C@@H](O)[C@H](O)[C@@H]1O` [α-methyl-D-mannoside, α-methyl-D-mannopyranoside], the “Alternan (Rel. %)” value [23] was 70 Rel. %.
`CCCCCCCCCCCCO[C@@H]1O[C@H](CO)[C@@H](O[C@H]2O[C@H](CO)[C@@H](O)[C@H](O)[C@H]2O)[C@H](O)[C@H]1O` [β-dodecyl maltoside] was tested, and the “Alternan (Rel. %)” value [23] was 83 Rel. %.
With `CO[C@@H]1O[C@H](CO)[C@H](O)[C@H](O)[C@H]1O` [β-methyl-D-galactoside, β-methyl-D-galactopyranoside] the “Alternan (Rel. %)” value [23] was 94 Rel. %.
`CO[C@@H]1O[C@H](CO)[C@@H](O)[C@H](O)[C@H]1O` [β-methyl-D-glucoside] was tested, and the “Alternan (Rel. %)” value [23] was 60 Rel. %.
`CO[C@@H]1O[C@H](CO)[C@@H](O)[C@H](O)[C@@H]1O` [β-methyl-D-mannoside] was tested, and the “Alternan (Rel. %)” value [23] was 89 Rel. %.
`COC1OCC(O)C(O)C1O` [β-methyl-D-xyloside] was tested, and the “Alternan (Rel. %)” value [23] was 96 Rel. %.
With `CCCCCCCCO[C@@H]1O[C@H](CO)[C@@H](O)[C@H](O)[C@H]1O` [β-octyl D-glucoside, β-octyl-D-glucopyranoside] the “Alternan (Rel. %)” value [23] was 52 Rel. %.
In the case of gentiobiose, the “Alternan (Rel. %)” value [23] is reported as 25 Rel. % and the “acceptor strength for alternansucrase, in words” value [23] is reported as “surprisingly good acceptor”.
With maltotriose the “Alternan (Rel. %)” value [23] was 65 Rel. %.

— patent US7182954B1, “Prebiotic oligosaccharides via alternansucrase acceptor reactions” (priority 2003, dated 2007)
